ChEMBL document CHEMBL1131279, “Endothiopeptide inhibitors of HIV-1 protease” (Bioorg Med Chem Lett, 1998)
Starred links: 1 amine or outer side, 2 acyl side, 3 side chain; linkers in the order of their positions; H or OH if unused. Non-standard residues stand in square brackets, D forms with d. Residues, ends and D or L forms follow the SMILES beside them. *: point of attachment. X2 = O=C([C@H](Cc1ccccc1)NC(=S)[C@H](Cc1ccccc1)N[*:1])[*:2]; X3 = O=C([C@H](Cc1ccccc1)CC(O)[C@H](Cc1ccccc1)N[*:1])[*:2]; X4 = CC(C)[C@H](/N=C(\S)[C@H](Cc1ccccc1)N[*:1])C(=O)[*:2]; AlaΨ(CSNH)Ala = C[C@H](NC(=S)[C@H](C)N[*:1])C(=O)[*:2]; X5 = C[C@H](N[*:1])C(=S)N[C@@H](Cc1ccccc1)C(=O)[*:2]; X1 = COC(=O)[C@@H](NC(=S)[C@@H](N*)C(C)C)C(C)C; Cbz = O=C(OCc1ccccc1)*; Boc = CC(C)(C)OC(=O)*

Legend:
[1] = target: T1, Human immunodeficiency virus type 1 protease (Human immunodeficiency virus 1, UniProt Q72874); test: Inhibitory activity against HIV-1 Protease was determined
[2] = target: T1, Human immunodeficiency virus type 1 protease; test: Binding affinity was evaluated for competitive inhibition of HIV-1 Protease

Structure (SMILES)	IC50 [1]	Ki [2]	Ki [1]
COC(=O)[C@@H](NC(=O)[C@@H](NC(=O)[C@H](Cc1ccccc1)NC(=S)[C@H](Cc1ccccc1)NC(=O)[C@H](C)NC(=O)[C@H](C)NC(=O)OC(C)(C)C)C(C)C)C(C)C (Boc-AA[X2]VV-OMe)	18 µM		
COC(=O)[C@@H](NC(=O)[C@@H](/N=C(\S)[C@H](Cc1ccccc1)NC(=O)[C@H](Cc1ccccc1)NC(=O)[C@H](C)NC(=O)[C@H](C)NC(=O)OC(C)(C)C)C(C)C)C(C)C (Boc-AAF[X4]V-OMe)	> 200 µM		
COC(=O)[C@@H](NC(=O)[C@@H](NC(=O)[C@H](Cc1ccccc1)NC(=O)[C@H](Cc1ccccc1)NC(=O)[C@H](C)/N=C(\S)[C@H](C)NC(=O)OC(C)(C)C)C(C)C)C(C)C (Boc-[AlaΨ(CSNH)Ala]FFVV-OMe)	160 µM		
COC(=O)[C@@H](NC(=S)[C@@H](NC(=O)[C@H](Cc1ccccc1)NC(=O)[C@H](Cc1ccccc1)NC(=O)[C@H](C)NC(=O)[C@H](C)NC(=O)OC(C)(C)C)C(C)C)C(C)C (Boc-AAFF-X1)	4.5 µM	3.4 µM	
COC(=O)[C@@H](NC(=O)[C@@H](NC(=O)[C@H](Cc1ccccc1)NC(=O)[C@H](Cc1ccccc1)NC(=S)[C@H](C)NC(=O)[C@H](C)NC(=O)OC(C)(C)C)C(C)C)C(C)C (Boc-A[X5]FVV-OMe)	51 µM		
COC(=O)[C@@H](NC(=O)[C@@H](NC(=O)[C@H](Cc1ccccc1)CC(O)[C@H](Cc1ccccc1)NC(=O)[C@H](C)NC(=O)[C@H](C)NC(=O)OCc1ccccc1)C(C)C)C(C)C (some centres not stated) (Cbz-AA[X3]VV-OMe)			0.0004 µM
